Experimental data as given in PubChem BioAssay (NCI).
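Step 1: Grow cells in 96-well plates. Step 2: Expose to compound for 48 hours at 5 concentrations. Step 3: Interpolate endpoints linearly; if unreached, use highest concentration. TGI marks complete inhibition of growth.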

Tests used:
Experiment in all cases: NCI-60 cell line screen, 48 h
[1] = tested on: HCT-15 colon
[2] = tested on: HCC-2998 colon
[3] = tested on: NCI-H23 lung
[4] = tested on: DU-145 prostate
[5] = tested on: SNB-19 CNS
[6] = tested on: SK-MEL-28 melanoma
[7] = tested on: HCT-116 colon
[8] = tested on: PC-3 prostate
[9] = tested on: NCI/ADR-RES ovarian
[10] = tested on: ACHN renal
[11] = tested on: SW-620 colon
[12] = tested on: U251 CNS
[13] = tested on: M14 melanoma
[14] = tested on: UACC-62 melanoma
[15] = tested on: SF-539 CNS
[16] = tested on: BT-549 breast
[17] = tested on: KM12 colon
[18] = tested on: SF-295 CNS
[19] = tested on: MDA-N
[20] = tested on: RXF 393 renal
[21] = tested on: T-47D breast
[22] = tested on: OVCAR-8 ovarian
[23] = tested on: SK-OV-3 ovarian
[24] = tested on: HT29 colon
[25] = tested on: RPMI-8226 leukemia
[26] = tested on: UO-31 renal
[27] = tested on: SK-MEL-2 melanoma
[28] = tested on: COLO 205 colon
[29] = tested on: UACC-257 melanoma
[30] = tested on: SF-268 CNS
[31] = tested on: EKVX NSCLC
[32] = tested on: MDA-MB-435
[33] = tested on: A549 NSCLC
[34] = tested on: OVCAR-3 ovarian
[35] = tested on: A498 renal
[36] = tested on: K-562 leukemia
[37] = tested on: HOP-62 NSCLC
[38] = tested on: MCF7 breast
[39] = tested on: SNB-75 CNS
[40] = tested on: MDA-MB-231 breast
[41] = tested on: 786-0 renal
[42] = tested on: OVCAR-4 ovarian
[43] = tested on: OVCAR-5 ovarian
[44] = tested on: NCI-H226 lung
[45] = tested on: CCRF-CEM leukemia
[46] = tested on: CAKI-1 renal
[47] = tested on: NCI-H460 lung
[48] = tested on: SN12C renal
[49] = tested on: MALME-3M melanoma
[50] = tested on: MOLT-4 leukemia
[51] = tested on: NCI-H522 lung
[52] = tested on: SK-MEL-5 melanoma
[53] = tested on: LOX IMVI melanoma
[54] = tested on: SR leukemia
[55] = tested on: IGROV1 ovarian
[56] = tested on: HS 578T breast
[57] = tested on: HOP-92 NSCLC
[58] = tested on: TK-10 renal

CCOC(CI)O[C@@H]1C=C[C@H](OC(C)=O)C1 (stereo not given in full)
TGI [1]: > 100 µM
TGI [2]: > 100 µM
TGI [3]: > 100 µM
TGI [4]: > 100 µM
TGI [5]: > 100 µM
TGI [6]: > 100 µM
TGI [7]: > 100 µM
TGI [8]: > 100 µM
TGI [9]: > 100 µM
TGI [10]: > 100 µM
TGI [11]: > 100 µM
TGI [12]: > 100 µM
TGI [13]: > 100 µM
TGI [14]: > 100 µM
TGI [15]: > 100 µM
TGI [16]: > 100 µM
TGI [17]: > 100 µM
TGI [18]: > 100 µM
TGI [19]: > 100 µM
TGI [20]: > 100 µM
TGI [21]: > 100 µM
TGI [22]: > 100 µM
TGI [23]: > 100 µM
TGI [24]: > 100 µM
TGI [25]: > 100 µM
TGI [26]: > 100 µM
TGI [27]: > 100 µM
TGI [28]: > 100 µM
TGI [29]: > 100 µM
TGI [30]: > 100 µM
TGI [31]: > 100 µM
TGI [32]: > 100 µM
TGI [33]: > 100 µM
TGI [34]: > 100 µM
TGI [35]: > 100 µM
TGI [36]: > 100 µM
TGI [37]: > 100 µM
TGI [38]: > 100 µM
TGI [39]: > 100 µM
TGI [40]: > 100 µM
TGI [41]: > 100 µM
TGI [42]: > 100 µM
TGI [43]: > 100 µM
TGI [44]: > 100 µM
TGI [45]: > 100 µM
TGI [46]: > 100 µM
TGI [47]: > 100 µM
TGI [48]: > 100 µM
TGI [49]: > 100 µM
TGI [50]: > 100 µM

CN(C)CCCNc1ccnc2cc([N+](=O)[O-])ccc12
TGI [1]: 26.7 µM
TGI [3]: 25.4 µM
TGI [4]: 72.2 µM
TGI [6]: 97.5 µM
TGI [7]: 23.7 µM
TGI [51]: 16.3 µM
TGI [52]: 24.1 µM
TGI [8]: 42.4 µM
TGI [53]: 24.6 µM
TGI [9]: 50 µM
TGI [10]: 61.5 µM
TGI [11]: 30 µM
TGI [12]: 57.7 µM
TGI [13]: 24.4 µM
TGI [14]: 33.6 µM
TGI [15]: 31.9 µM
TGI [16]: 33.4 µM
TGI [17]: 26.4 µM
TGI [18]: 54.9 µM
TGI [19]: 25.7 µM
TGI [20]: 26.3 µM
TGI [21]: 35.8 µM
TGI [22]: 46.1 µM
TGI [23]: 62.3 µM
TGI [24]: 6.99 µM
TGI [25]: > 100 µM
TGI [26]: 44.8 µM
TGI [54]: > 100 µM
TGI [55]: 12.8 µM
TGI [27]: 29.7 µM
TGI [28]: 7.9 µM
TGI [29]: 27.7 µM
TGI [30]: 53.9 µM
TGI [32]: 31.3 µM
TGI [33]: 60.6 µM
TGI [34]: 29.9 µM
TGI [35]: 31.7 µM
TGI [56]: 40.4 µM
TGI [36]: > 100 µM
TGI [37]: 42.3 µM
TGI [38]: 16.7 µM
TGI [39]: 48.9 µM
TGI [40]: 28.6 µM
TGI [41]: 28.8 µM
TGI [42]: 12.8 µM
TGI [43]: 42.4 µM
TGI [57]: 8.13 µM
TGI [44]: 35 µM
TGI [45]: > 100 µM
TGI [46]: 67.6 µM
TGI [47]: 17.7 µM
TGI [48]: 39.9 µM
TGI [49]: 11.4 µM
TGI [50]: > 100 µM
TGI [58]: 65.4 µM
